Data taken from patent US20250236614A1, “BICYCLIC TETRAHYDROAZEPINE DERIVATIVES” (Hoffmann-La Roche Inc., priority 2022, published 2025).

Experiments:
DGK ζ kinase = DGK ζ kinase (Homo sapiens, UniProt Q13574); test: In vitro DGK inhibition assay (ADP Glo) run by Reaction Biology Corp., DGK zeta; type: biochemical; conditions: isomer A, 2 nM kinase, 50 μM ATP, 500 uM DLG, 10-dose, 3-fold dilution starting at 1 μM, read-out: DGKzeta IC50
Procedure: (§1) DGK α and ζ kinase use ATP to phosphorylate the substrate 1,2-dilauroyl-sn-glycerol (DLG). ATP is converted to ADP as a result of this enzymatic reaction.
(§2) After the kinase reaction, an ATP-depletion reagent is added to terminate the kinase reaction and deplete any remaining ATP, leaving only ADP. Second, a detection reagent is added to simultaneously convert ADP to ATP and allow the newly synthesized ATP to be converted to light using a coupled luciferase/luciferin reaction.
(§3) DGK α and ζ kinase ADP Glo assays were ran by Reaction Biology Corp., 1 Great Valley Parkway, Suite 2, Malverm, 19355, PA, USA. Information provided by the service provider are the following: DGK α and ζ kinases were used at 2 nM final concentration. Reactions were carried out at 50 μM ATP. 500 uM of the substrate DLG (Dilauroyl-sn-glycerol) was used. Compounds were received at 10 mM DMSO stock solution and were tested in 10-dose IC50 duplicate with 3-fold serial dilution starting at 1 μM. A control compound, Calphostin C, was tested in 10-dose IC50 with 3-fold serial dilution starting at 100 μM.

DGK α kinase = DGK α kinase (Homo sapiens, UniProt P23743); test: In vitro DGK inhibition assay (ADP Glo) run by Reaction Biology Corp., DGK alpha; type: biochemical; conditions: isomer A, 2 nM kinase, 50 μM ATP, 500 uM DLG, 10-dose, 3-fold dilution starting at 1 μM, read-out: DGKalpha IC50
Procedure: as §1, §2, §3

primary human T-cells = test: T-cell proliferation assay (CellTiter-Glo); type: cell-based; conditions: Homo sapiens, T-cell, 120 h, isomer A; for EC50: CD3 antibody-stimulated T-cells, CellTiter-Glo after 5 days, read-out: Tcell Proliferation CD3 EC50; for Emax: CD3 condition, 5 days, 20 μM reference compound A1 = 100%, DMSO neutral control, read-out: Emax proliferation (% activation)
Procedure: Expanded primary human T-cells are thawed and cultured in RPMI 1640 (Gibco, #61870-010)+5% human serum (HS, Sigma, #H3667)+1 mM Sodium Pyruvate (Gibco, #11360-039)+50 μM 2-mercaptoethanol (Gibco, #31350-010) and 1× Pen-Strep (Life Technologies, #15140122) medium at density of 2 Mio/ml for 3 hours in 5% CO2, 37° C. and 95% humidity. For coating of plates, PBS++ only or PBS++ with CD3 antibody (concentration depending on donor and determined by CD3 titrations) is added 100 μl/well to Poly-D Lysine coated 96-well plates. Plates are sealed and incubated at room temperature for 3 hours on a table-top rocking platform. After incubation, plates are washed once with PBS−− and filled with 40 μl/well culture medium only. Compounds are then added (see next section) to medium only plates. After 3 hours of culturing the T-cells, cells are filtered through a cell strainer (Miltenyi Biotech, #130-041-407), counted again and concentration is adjusted to 1.25 Mio/ml.
Cells are then seeded 80 μl/well to the 40 μl/well including dispensed compounds according to plate layout. By adding cells, compounds are further diluted 1:3, and resulting in 100k cells/120 μl/well. After 48 hours 40 μl of supernatant is collected carefully from the top while not disturbing the cells. Cells are assessed for proliferation 5 days later by measuring […] using CellTiterGlo (Promega).
Compounds were added in a 5 or 6 pt dose response with the Tecan D300e Digital Dispenser, all conditions 3 times more concentrated than the end-concentration, since cells are added afterwards (80 μl cells to 40 μl prepared medium with treatment). The DR was starting at 20 μM or 10 μM final top concentration and a dilution factor of 3.333. The positive control was the reference compound A1 that was added in a dose response as well, additionally to 3 wells of only 20 μM representing the positive stimulator control. All wells were normalized with DMSO to a final concentration of 0.6% (0.2% end-concentration).
After 5 days, for detection of ATP which is directly proportional to the number of cells present per well, the CellTiter-Glo® 2.0 Reagent is used. After visual control for toxicity or precipitations of the tested compounds, the plates are equilibrated to room temperature for 45 minutes. CellTiter-Glo® 2.0 Reagent is equilibrated to room temperature as well. After equilibration, an equal amount of CellTiter-Glo reagent is added to the cells (80 μl/well) with an electronic multichannel pipette. Plates are placed on a rocking platform for 15 minutes at room temperature. After incubation, the bottom of the plates is sealed with backing tape. Luminescence is measured with PHERAstar FSX (interval time 0.5 sec, gain 3000, focal height 15 mm) and exported as CSV file for analysis in Genedata screener.
CD3 and PBS plates were analysed separately in Genedata Screener using Roche Normalization PCT_POS_CTRL with DMSO set as Neutral Control and 20 μM of the reference compound A1 set as Stimulator Control/100%.
For CD3 conditions EC50 and Emax of the fitted sigmoidal curve were reported. If no curve could be fitted, the EC50 was reported as blank field and the Emax was based on individual data points. […] Compounds which activate unstimulated cells (see IL2 measurements) or compounds which negatively affected viability were flagged.

[1] = target: T1, hDGKalpha(1-735)-N-His (DGKA) (Homo sapiens, UniProt P23743); test: In vitro DGK inhibition assay (ADP-Glo, in house), DGK alpha; type: biochemical; conditions: isomer A; 4 nM DGK α, 25 μM ATP, 125 μM DLG in liposomes, 1 hour reaction; read-out: DGKalpha ADP Glo assay IC50
T1 construct: hDGKalpha(1-735)-N-His; His (N)
Procedure: (§4) DGK α and ζ kinase use ATP to phosphorylate the substrate 1,2-dilauroyl-sn-glycerol (DLG, incorporated in the liposomes). ATP is converted to ADP as a result of this enzymatic reaction.
as §2
(§5) Full length DGKA and Z were expressed in Sf21 insect cells by infecting the cells with the baculovirus stock at MOI of 2. Purification of both enzymes was performed as previously described by Takahashi et al., PeerJ, 2018 (Takahashi, D.; Sakane, F. Expression and purification of human diacylglycerolkinase alpha from baculovirus-infected insect cells for structural studies. PeerJ2018, 6, No. e5449).
(§6) A concentrated liposome solution was prepared in assay buffer without DTT and BSA: 2 mM of DLG in 21 mM of total liposome (2 mM DLG/8 mM PS/11 mM PC). The reaction mixtures contain the assay buffer with a final DLG concentration of 125 μM ATP concentrations of 25 μM (for DGKA assay) or 50 μM (for DGKZ assay). The reactions were started by addition of DGK α and ζ kinases at 4 nM and 2 nM final concentrations, respectively. After 1 hour reaction, the amount of ADP formed was detected with the ADP-Glo kinase assay (Promega) according to the manufacturer instructions. Compounds were added in 11I-points dose response, starting at 10 mM, 1:3 dilutions, with a final DMSO concentration of […]. The multidrop combi was used as a liquid handler and luminescence was read with 0.5 s by the envision reader (PE).

[2] = target: T2, hDGKzeta(1-928)-N-His (DGKZ) (Homo sapiens, UniProt Q13574); test: In vitro DGK inhibition assay (ADP-Glo, in house), DGK zeta; type: biochemical; conditions: isomer A; 2 nM DGK ζ, 50 μM ATP, 125 μM DLG in liposomes, 1 hour reaction; read-out: DGKzeta ADP Glo assay IC50
T2 construct: hDGKzeta(1-928)-N-His; His (N)
Procedure: as §4, §2, §5, §6

T2 sequence (Q13574 whole entry): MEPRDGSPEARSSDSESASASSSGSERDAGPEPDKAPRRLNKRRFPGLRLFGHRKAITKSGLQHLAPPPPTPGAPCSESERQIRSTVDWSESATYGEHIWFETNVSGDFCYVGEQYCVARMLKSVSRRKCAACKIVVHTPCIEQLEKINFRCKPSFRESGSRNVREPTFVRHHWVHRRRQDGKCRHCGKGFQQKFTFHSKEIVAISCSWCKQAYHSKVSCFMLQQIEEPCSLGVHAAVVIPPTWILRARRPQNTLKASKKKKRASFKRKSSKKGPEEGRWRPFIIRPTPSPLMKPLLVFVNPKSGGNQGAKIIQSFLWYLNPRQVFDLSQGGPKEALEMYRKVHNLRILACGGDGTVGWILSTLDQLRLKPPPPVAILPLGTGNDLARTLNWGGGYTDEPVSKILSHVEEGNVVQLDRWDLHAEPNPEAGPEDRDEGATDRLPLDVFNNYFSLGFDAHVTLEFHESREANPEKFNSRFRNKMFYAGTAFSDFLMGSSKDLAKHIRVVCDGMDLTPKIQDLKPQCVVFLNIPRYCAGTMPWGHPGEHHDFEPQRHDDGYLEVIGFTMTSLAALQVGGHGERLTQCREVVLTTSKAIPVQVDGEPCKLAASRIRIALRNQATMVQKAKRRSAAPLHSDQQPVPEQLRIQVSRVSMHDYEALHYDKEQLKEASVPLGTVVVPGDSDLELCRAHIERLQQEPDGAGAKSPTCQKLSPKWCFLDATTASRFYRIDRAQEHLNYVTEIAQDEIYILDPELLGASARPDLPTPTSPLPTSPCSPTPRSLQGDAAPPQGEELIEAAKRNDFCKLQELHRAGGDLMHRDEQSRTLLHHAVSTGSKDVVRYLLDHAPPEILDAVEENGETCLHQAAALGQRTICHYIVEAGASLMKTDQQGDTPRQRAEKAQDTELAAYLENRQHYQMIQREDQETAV
T1 sequence (P23743 whole entry): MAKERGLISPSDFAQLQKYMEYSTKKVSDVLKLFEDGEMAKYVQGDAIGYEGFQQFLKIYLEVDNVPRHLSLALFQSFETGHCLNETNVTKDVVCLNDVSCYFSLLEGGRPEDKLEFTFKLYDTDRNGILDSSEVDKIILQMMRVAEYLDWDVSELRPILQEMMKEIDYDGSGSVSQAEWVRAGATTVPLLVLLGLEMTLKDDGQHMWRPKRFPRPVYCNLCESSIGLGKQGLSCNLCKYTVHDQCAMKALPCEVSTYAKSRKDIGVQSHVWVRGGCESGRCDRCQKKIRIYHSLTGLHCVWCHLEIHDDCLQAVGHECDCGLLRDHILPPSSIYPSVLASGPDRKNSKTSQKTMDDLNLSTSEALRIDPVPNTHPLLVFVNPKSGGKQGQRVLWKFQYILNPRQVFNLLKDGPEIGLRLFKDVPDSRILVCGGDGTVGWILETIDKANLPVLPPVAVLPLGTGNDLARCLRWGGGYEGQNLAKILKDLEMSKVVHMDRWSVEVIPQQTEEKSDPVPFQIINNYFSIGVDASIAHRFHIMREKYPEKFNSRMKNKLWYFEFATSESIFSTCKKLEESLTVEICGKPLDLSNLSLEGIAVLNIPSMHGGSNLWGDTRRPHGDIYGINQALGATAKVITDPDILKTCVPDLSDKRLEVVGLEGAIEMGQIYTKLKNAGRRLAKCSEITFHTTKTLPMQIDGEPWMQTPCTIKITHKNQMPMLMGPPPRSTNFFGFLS
Chain of DGK ζ kinase (Q13574 whole entry): as the sequence (Q13574 whole entry) above
Chain of DGK α kinase (P23743 whole entry): as the sequence (P23743 whole entry) above

Structure (SMILES) | IC50 (DGK ζ kinase) | IC50 (DGK α kinase) | IC50 [1] | IC50 [2] | EC50 (primary human T-cells) | Emax (primary human T-cells)
CC(C)(C#N)c1nnc(-c2cc3c(cc2F)C(F)(F)C[C@@H](N)C(=O)N3Cc2ccc(Oc3ccccc3)cc2)o1 (single isomer, unassigned) [Example 11] | 20.6 nM | 6.9 nM | 3310 nM | 1250 nM | 192 nM | 88%
CC(C)(C#N)c1nnc(-c2cc3c(cc2F)C(F)(F)C[C@@H](N)C(=O)N3Cc2ccc(-n3cc(OC(F)(F)F)cn3)cc2)o1 (single isomer, unassigned) [Example 43] |  |  |  |  | 23.4 nM | 105%
CC(C)(C#N)c1nnc(-c2cc3c(cc2F)C(F)(F)C[C@@H](N)C(=O)N3Cc2ccc(-n3cc(C(F)(F)F)cn3)cc2F)o1 (single isomer, unassigned) [Example 44] |  |  |  |  | 1460 nM | 126%
CC(C)(C#N)c1nnc(-c2cc3c(cc2F)C(F)(F)C[C@@H](N)C(=O)N3Cc2ccc(-n3cc(C(F)(F)F)cn3)nc2F)o1 (single isomer, unassigned) [Example 45] |  |  |  |  | 2940 nM | 67%

Continued, in another order:

IC50 (DGK ζ kinase) | IC50 (DGK α kinase) | IC50 [1] | IC50 [2] | Structure (SMILES) | EC50 (primary human T-cells) | Emax (primary human T-cells)
 |  | > 62500 nM | > 62500 nM | CC(C)(C)c1cncc(-c2cc3c(cc2F)C(F)(F)C[C@@H](N)C(=O)N3Cc2ccc(Cl)cc2)c1 (single isomer, unassigned) [Example 18] | 666 nM | 52%
 |  | 17800 nM | 6750 nM | CC(C)(C#N)c1nnc(-c2cc3c(cc2F)C(F)(F)C[C@@H](N)C(=O)N3Cc2ccc(-n3cc(C(F)(F)F)cn3)nc2)o1 (single isomer, unassigned) [Example 46] | 542 nM | 87%
 |  | 23700 nM | 2990 nM | CC(C)(C#N)c1nnc(-c2cc3c(cc2F)C(F)(F)C[C@@H](N)C(=O)N3Cc2ccc(-n3cc(C(F)(F)F)cn3)c(F)c2)o1 (single isomer, unassigned) [Example 47] | 496 nM | 98%
 |  | 1510 nM | 4920 nM | CC(C)(C#N)c1nnc(-c2cc3c(cc2F)C(F)(F)C[C@@H](N)C(=O)N3Cc2ccc(-c3cnn(C(F)(F)F)c3)cc2)o1 (single isomer, unassigned) [Example 48] | 163 nM | 171%
